Reference: patent publication US11911386B2, “Methods of treating B-cell proliferative disorder” (BeiGene Switzerland GmbH, priority 2022, dated 2024)

What was measured:
panel of 370 kinases = assay: Kinome profiling at 100xIC50 (BTK) concentrations; assay type: biochemical; conditions: 100×IC50 (BTK) concentration
[1] = cited from earlier work
[2] = RESONATE / RESONATE2 trials: ibrutinib effect (non-inferiority margin derivation); assay type: in vivo, human
[3] = Phase 1 DDI study: treatment-emergent adverse events; assay type: in vivo, human; conditions: N = 13
Experimental: Safety was assessed by monitoring and recording of adverse events (AEs), serious adverse events (SAEs), clinical laboratory tests, physical examinations, and vital signs. […] A TEAE was defined as an AE that started during or after the first dose or started before the first dose and increased in severity after the first dose. AEs were classified based on MedDRA Version 24.0.
Safety and tolerability were assessed, when applicable, by incidence, severity, change from baseline values, and abnormal values for all relevant parameters such as AEs, laboratory parameters, vital signs, and physical examination.

[4] = cited from earlier work; remark: listed apart in the source
CYP3A = conditions: coadministration of rifabutin with midazolam; cited from earlier work
[5] = phase 3, relapsed/refractory CLL

SMILES	Off-target kinases inhibited (panel of 370 kinases)	Arthralgia, any grade [1, 5]	Atrial fibrillation, any grade [1, 5]	Cough [1, 5]	Fatigue grade ≥3 [1, 5]	Headaches [1, 5]	Hypertension, any grade [1, 5]	Infections grade ≥3 [1, 5]	Pooled PFS HR, fixed-effect meta-analysis [2]	AEs leading to treatment discontinuation ([1]; long-term follow-up, 132 patients)	Chromaturia TEAE [3]	Overall TEAEs [3]	Renal and urinary disorders TEAE [3]	Decrease of systemic levels after multiple doses (auto-induction) ([4]; in vivo)	Mean t1/2 (standard deviation) ([4]; single oral dose of 300 mg)	Tmax ([4]; single oral dose of 300 mg)	Reduction in midazolam exposure (CYP3A)
CC#CC(=O)N1CCC[C@H]1c1nc(-c2ccc(C(=O)Nc3ccccn3)cc2)c2c(N)nccn12 [acalabrutinib]	15 kinases	15.8%	9.0%	28.9%	3.4%	34.6%	8.6%	30.8%	–	–	–	–	–	–	–	–	–
C=CC(=O)N1CCC[C@@H](n2nc(-c3ccc(Oc4ccccc4)cc3)c3c(N)ncnc32)C1 [ibrutinib, 1-[(3R)-3-[4-amino-3-(4-phenoxyphenyl)-1H-pyrazolo[3,4-d]pyrimidin-1-yl]-1-piperidinyl]-2-propen-1-one]	17 kinases	–	–	–	–	–	–	–	0.120	13%	–	–	–	–	–	–	–
CO[C@H]1/C=C/O[C@@]2(C)Oc3c(C)c(O)c4c(c3C2=O)C2=NC3(CCN(CC(C)C)CC3)NC2=C(NC(=O)/C(C)=C\C=C\[C@H](C)[C@H](O)[C@@H](C)[C@@H](O)[C@@H](C)[C@H](OC(C)=O)[C@@H]1C)C4=O [rifabutin]	–	–	–	–	–	–	–	–	–	–	6 (46.2) n (%)	6 (46.2) n (%)	6 (46.2) n (%)	38%	45 (standard deviation, 17) hours	2 to 4 h	≈ 3.2 fold
